This passage reports IC50 results from US5712417A, “Inhibitors of retroviral proteases” (Abbott Laboratories, priority 1989, dated 1998).

Molecules are shown by their SMILES. Structures can show the parent of a compound that is named as a salt.

The target in one experiment is T1, HIV protease (Human immunodeficiency virus type 1 group M subtype B, UniProt P04585).
T1 construct: HIV protease consists of 99 amino acids and is evidently split off by itself from the pol polyprotein
In words: Inhibition of HIV protease (cleavage of H-Ser-Phe-Asn-Phe-Opr-Gln-Ile-OH, HPLC). In kind it is biochemical.
Conditions: not given
The source says: The compounds of the formula (I) according to the invention have enzyme-inhibiting properties. In particular, they inhibit the action of retroviral aspartyl proteases, such as that of HIV protease. Their enzyme-inhibitory action, which is in the milli- to subnanomolar range, can be determined as follows.
The heptapeptide: H-Ser-Phe-Asn-Phe-Pro-Gln-Ile-OH (P. L. Darke et al., Biophys. Res. Commun. 156 (1988) 297-303), inter alia, has hitherto been used as the substrate of HIV protease. HIV protease cleaves the substrate here between the second Phe and Pro.
General instructions for testing inhibitors of HIV proteases: a) Preparation of the substrate solution:
2 mg of H-Ser-Phe-Asn-Phe-Opr-Gln-Ile-OH (H-Opr-OH=5-oxaproline) are dissolved in 1 ml of MGTE15 buffer (use of ultrasound if necessary) and the solution is then filtered over a sterile filter (0.45 μm). […]
b) Preparation of the inhibitor solution:
2.5 times the desired molarity of the inhibitor per ml of solution are weighed out and dissolved in DMSO (10% of the final volume). The solution is diluted to the final volume with MGTE15 buffer and filtered over a sterile filter (0.45 μm). […]
c) Preparation of the protease solution:
5 μl of the HIV protease solution are diluted with MGTE25 buffer as required.
10 μl portions of the substrate solution are pipetted into test-tubes (16×100) with a screw cap. For the blank experiment, 10 μl of MGTE15 buffer containing 10% of DMSO are pipetted into a test-tube. 10 μl portions of the inhibitor solutions are added to the other test-tubes. The mixtures are incubated at 37° C. for 5-10 minutes and 5 μl of the protease solution are then added to each sample, After reaction at 35° C. for 2 hours, 10 or 20 μl (depending on the sensitivity of the HPLC apparatus) of each sample are then pipetted off, introduced into microvials and diluted with 120 μl of the HPLC mobile phase. […]
e) Conditions for the HPLC analysis:
20% (weight/weight) of aceto-
Column: Merck ®LICHROSORB RP18 (5 μm) 250×4
Column temperature: 42° C.
Detector parameters: 215 nm, 0.08 AUF, 18.2° C.
Analysis time: 11 minutes
Retention time of the substrate: 8.1 minutes
Retention time of the N-terminal tetrapeptide: 3.9 minutes
20 mM morpholinoethanesulfonic acid (MES)
15% (weight/volume) of glycerol
0.1% (volume/volume) of Triton ×100
1 mM phenylmethylsulfonyl fluoride (PMSF)
25% (weight/volume) of glycerol, additionally 1 mM dithiothreitol (DTT) The MES, EDTA, NaCl, DTT and PMSF are weighed into a conical flask and dissolved in a little water and the pH is brought to 6. The corresponding amount of glycerol is weighed into a measuring flask and ®Triton ×100 is pipetted in. The aqueous solution is transferred to the measuring flask and made up to the mark with water.
A 0.1M solution is prepared from orthophosphoric acid (FLUKA extra pure analytical grade). This solution is brought to exactly pH 2.5 with triethylamine (FLUKA extra pure analytical grade). The weight of the solution is determined and the corresponding amount of acetonitrile (fume cupboard) is weighed in. The mixture is mixed thoroughly and degassed with helium 5.0 for about 5 minutes.
Under the conditions chosen here, heptapeptides are separated from the N-terminal tetrapeptide formed during enzymatic cleavage. The percentage content of the tetrapeptide peak in respect of the sum of tetrapeptide+heptapeptide corresponds to the cleaving rate. The following IC50 values indicate the inhibitor concentration at which the cleavage rate is halved.
Molecule `CC(C)[C@H](NC(=O)[C@H](Cc1ccccc1)NC(=O)[C@H](O)[C@@H](O)[C@H](O)[C@H](O)CO)C(=O)N[C@@H](Cc1ccccc1)[C@@H](O)[C@H](O)[C@H](Cc1ccccc1)NC(=O)[C@@H](NC(=O)[C@H](Cc1ccccc1)NC(=O)[C@H](O)[C@@H](O)[C@H](O)[C@H](O)CO)C(C)C` [Example 110, N,N'-bis-<D-Gluconyl-L-phenylalanyl-L-valyl>-2S,5S-diamino-1,6-diphenylhexane-3R,4R-diol] displayed a concentration for half-maximal inhibition (IC50) of 1 nM.

Still in this experiment, the particulars now being: inhibitor concentration at which the cleavage rate is halved; pH 6, 2 hours.
In turn, `CC(C)[C@H](NC(=O)[C@H](Cc1ccccc1)NC(=O)[C@H]1CC[C@@H](NC(=O)OC(C)(C)C)CC1)C(=O)N[C@@H](Cc1ccccc1)[C@H](O)[C@@H](O)[C@H](Cc1ccccc1)NC(=O)[C@@H](NC(=O)[C@H](Cc1ccccc1)NC(=O)[C@H]1CC[C@@H](NC(=O)OC(C)(C)C)CC1)C(C)C` [Example 50, N,N'-bis-(4Z -N-tert.-Butoxycarbonylamino)-cyclohexanecarbonyl-L-phenylalanyl-L-valyl)-2S, 5S-diamino-1,6-diphenyl-4S, 5S-diol dihydrochloride] gave an IC50 of 45 nM.

The same experiment, now with this note: inhibitor concentration at which the cleavage rate is halved; pH 6, 2 hours; read-out: IC50.
For `CC(C)[C@H](NC(=O)[C@@H](N)Cc1ccccc1)C(=O)N[C@H](Cc1ccccc1)[C@@H](O)[C@H](O)[C@@H](Cc1ccccc1)NC(=O)[C@@H](NC(=O)[C@@H](N)Cc1ccccc1)C(C)C` [Example 30, N,N'-bis-(L-Phenylalanyl-L-valyl)-2R,5R-diamino-1,6-diphenylhexane-3R,4R-diol dihydrochloride], the 50% inhibitory concentration (IC50) is 30 nM.

`CC(C)[C@H](NC[C@@H](N)Cc1ccccc1)C(=O)N[C@@H](Cc1ccccc1)[C@H](O)[C@@H](O)[C@H](Cc1ccccc1)NC(=O)[C@@H](NC[C@@H](N)Cc1ccccc1)C(C)C` [Example 28, N,N'-bis-(2S-<2S-Amino-3-phenylpropyl>-amino-3-methyl-butanoyl)-2S,5S-diamino-1,6-diphenylhexane-3S,4S-diol tetrahydrochloride]: the IC50 is 3000 nM.

Take `CC(C)(C)OC(=O)N[C@@H](CC1CCCCC1)[C@H](O)[C@H](O)[C@H](CC1CCCCC1)NC(=O)OC(C)(C)C` [Example 48, N,N'-bis-(tert.-Butoxycarbonyl)-2S, 5S-diamino-1,6-dicyclohexylhexane-3R, 4S-diol]: the IC50 stood at 80000 nM.

With `CC(C)[C@H](NC(=O)[C@@H](N)Cc1ccccc1)C(=O)N[C@@H](CCc1ccccc1)[C@@H](O)[C@H](O)[C@H](CCc1ccccc1)NC(=O)[C@@H](NC(=O)[C@@H](N)Cc1ccccc1)C(C)C` [Example 148, N,N'-bis-(L-Phenylalanyl-L-valyl)-3S,6S-diamino-1,8-diphenyloctane-4R,5R-diol dihydrochloride], the IC50 came to 36 nM.

Consider `CC(C)[C@H](NC(=O)C(Cc1ccccc1)CS(=O)(=O)N1CCC(N)CC1)C(=O)N[C@@H](Cc1ccccc1)[C@@H](O)[C@H](O)[C@H](Cc1ccccc1)NC(=O)[C@@H](NC(=O)C(Cc1ccccc1)CS(=O)(=O)N1CCC(N)CC1)C(C)C` (stereo partly drawn) [Example 97, N,N'-bis-<3-(4-Amino-1-piperidylsulfonyl)-2-benzyl-propionyl-L-valyl>-2S,5S-diamino-1,6-diphenylhexane-3R,4R-diol], for which the concentration for half-maximal inhibition (IC50) is 36 nM.

Consider `CC(C)[C@H](NC(=O)[C@@H]1Cc2ccccc2CN1C(=O)OCc1ccccc1)C(=O)N[C@@H](Cc1ccccc1)[C@@H](O)[C@H](O)[C@H](Cc1ccccc1)NC(=O)[C@@H](NC(=O)[C@@H]1Cc2ccccc2CN1C(=O)OCc1ccccc1)C(C)C` [Example 119, N,N'-bis-<Benzyloxycarbonyl-L-1,2,3,4-tetrahydro-isoquinolin-3-ylcarbonyl-L-valyl>-2S, 5S-diamino-1,6-diphenylhexane-3R, 4R-diol], for which the half-maximal inhibitory concentration (IC50) was determined as 10000 nM.

In the case of `CC(C)[C@H](NC(=O)[C@H](Cc1ccccc1)NC(=O)OC(C)(C)C)C(=O)N[C@H](Cc1ccccc1)[C@@H](O)[C@H](O)[C@@H](Cc1ccccc1)NC(=O)[C@@H](NC(=O)[C@H](Cc1ccccc1)NC(=O)OC(C)(C)C)C(C)C` [Example 33, N,N'-bis-(tert.-Butoxycarbonyl-L-phenylalanyl-L-valyl)-2R,5R-diamino-1,6-diphenylhexane-3R,4R-diol], the 50% inhibitory concentration (IC50) came to 20000 nM.

In the case of `CC(C)C(NC(=O)C(CN)Cc1ccccc1)C(=O)NC(Cc1ccccc1)C(O)C(O)C(Cc1ccccc1)NC(=O)C(NC(=O)C(CN)Cc1ccccc1)C(C)C` (single isomer, unassigned) [Example 104, N,N'-bis-<(3-Amino-2-benzyl)-propionyl-L-valyl>-2S,5S-diamino-1,6-diphenylhexane-3R,4R-diol dihydrochloride], the half-maximal inhibitory concentration (IC50) is 24 nM.

As to `CC(C)C[C@H](N)C(=O)N[C@H](C(=O)N[C@@H](Cc1ccccc1)[C@H](O)[C@@H](O)[C@H](Cc1ccccc1)NC(=O)[C@@H](NC(=O)[C@@H](N)CC(C)C)C(C)C)C(C)C` [Example 87, N,N'-bis-<L-Leucyl-L-valyl>-2S,5S-diamino-1,6-diphenyl-hexane-3S,4S-dioldihydrochloride], the half-maximal inhibitory concentration (IC50) came out at 1.6 nM.

Turning to `CC(C)[C@H](NC(=O)[C@@H](N)Cc1ccccc1)C(=O)N[C@H](CNC[C@H](Cc1ccccc1)NC(=O)[C@@H](NC(=O)[C@@H](N)Cc1ccccc1)C(C)C)Cc1ccccc1` [Example 21, Bis-(N-(L-phenylalanyl-L-valyl)-2S-amino-3-phenylpropyl)-amine trihydrochloride], the IC50 came to 220 nM.

Consider `CC(C)[C@H](NC(=O)C(Cc1ccccc1)CS(=O)(=O)N1CCC(NC(=O)OC(C)(C)C)CC1)C(=O)N[C@@H](Cc1ccccc1)[C@@H](O)[C@H](O)[C@H](Cc1ccccc1)NC(=O)[C@@H](NC(=O)C(Cc1ccccc1)CS(=O)(=O)N1CCC(NC(=O)OC(C)(C)C)CC1)C(C)C` (stereo partly drawn) [Example 98, N,N'-bis-<2-Benzyl-3-(4-tert.-butoxycarbonylamino-1-piperidylsulfonyl)-propionyl-L-valyl>-2S,5S-diamino-1,6-diphenylhexane-3R,4R-diol], for which the IC50 was 1000 nM.

As to `CC(C)[C@H](NC(=O)[C@@H](N)Cc1cccc2ccccc12)C(=O)N[C@@H](Cc1ccccc1)[C@@H](O)[C@H](O)[C@H](Cc1ccccc1)NC(=O)[C@@H](NC(=O)[C@@H](N)Cc1cccc2ccccc12)C(C)C` [Example 39, N,N'-bis-(L-(1-Naphthyl)-alanyl-L-valyl)-2S,5S-diamino-1,6-diphenylhexane-3R,4R-diol dihydrochloride], the IC50 is 1.3 nM.

`CC(C)[C@H](NC(=O)[C@H](Cc1ccccc1)NC(=O)[C@@H](N)CO)C(=O)N[C@@H](Cc1ccccc1)[C@@H](O)[C@H](O)[C@H](Cc1ccccc1)NC(=O)[C@@H](NC(=O)[C@H](Cc1ccccc1)NC(=O)[C@@H](N)CO)C(C)C` [Example 14, N,N'-bis-(L-Seryl-L-phenylalanyl-L-valyl)-2S,5S-diamino-1,6-diphenylhexane-3R,4R-diol dihydrochloride]: the 50% inhibitory concentration (IC50) turned out to be 1 nM.

In the case of `CC(C)[C@H](NC(=O)CSc1ccncc1)C(=O)N[C@@H](Cc1ccccc1)[C@@H](O)[C@H](O)[C@H](Cc1ccccc1)NC(=O)[C@@H](NC(=O)CSc1ccncc1)C(C)C` [Example 59, N,N'-bis-<(4-Pyridylthio)-acetyl-L-valyl>-2S,5S-diamino-1,6-diphenylhexane-3R,4R-diol], the IC50 came out at 47 nM.

The same experiment, now with this note: inhibitor concentration at which the cleavage rate is halved; unit as printed for Ex. 8; read-out: IC50.
As for `CC(C)[C@H](NC(=O)OC(C)(C)C)C(=O)N[C@@H](Cc1ccccc1)[C@H](O)[C@@H](O)[C@H](Cc1ccccc1)NC(=O)[C@@H](NC(=O)OC(C)(C)C)C(C)C` [Example 8, N,N'-bis-(tert.-Butoxycarbonyl-L-valyl)-2S,5S-diamino-1,6-diphenylhexane-3S,4S-diol], the half-maximal inhibitory concentration (IC50) was 30000 nM.

The term IC50 denotes the concentration at which inhibition is half-maximal.
